Measurements as given in PubChem BioAssay (NCI).
“And” between values parts separate entries of the source, which are not always exact repeats. Equal entries are not always repeated.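 Interpolation was linear, between the two tested concentrations surrounding the appropriate level; five concentrations were tested over 48 hours in 96-well plates. The concentration for 50% growth inhibition is given as GI50. At the TGI there is no net growth.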 The source made the active and inactive calls. Rule as the data show it: active = GI50 below about 0.43 µM; inactive = the rest.

Assays:
Assay in all cases: NCI anticancer screen, dose series, 48 h
[1] = tested on: SK-MEL-2 melanoma
[2] = tested on: MDA-N
[3] = tested on: NCI-H522 lung
[4] = tested on: UACC-62 melanoma
[5] = tested on: SNB-75 CNS
[6] = tested on: SNB-19 CNS
[7] = tested on: BT-549 breast
[8] = tested on: SW-620 colon
[9] = tested on: MOLT-4 leukemia
[10] = tested on: SK-MEL-5 melanoma
[11] = tested on: HOP-92 NSCLC
[12] = tested on: OVCAR-8 ovarian
[13] = tested on: IGROV1 ovarian
[14] = tested on: HT29 colon
[15] = tested on: NCI-H226 lung
[16] = tested on: HS 578T breast
[17] = tested on: CAKI-1 renal
[18] = tested on: UO-31 renal
[19] = tested on: OVCAR-4 ovarian
[20] = tested on: MDA-MB-231 breast
[21] = tested on: SK-MEL-28 melanoma
[22] = tested on: LXFL 529 NSCLC
[23] = tested on: SNB-78 CNS
[24] = tested on: KM12 colon
[25] = tested on: M14 melanoma
[26] = tested on: HCT-15 colon
[27] = tested on: DLD-1 colon
[28] = tested on: MCF7 breast
[29] = tested on: LOX IMVI melanoma
[30] = tested on: HCT-116 colon
[31] = tested on: K-562 leukemia
[32] = tested on: RXF 393 renal
[33] = tested on: U251 CNS
[34] = tested on: SF-295 CNS
[35] = tested on: SR leukemia
[36] = tested on: TK-10 renal
[37] = tested on: PC-3 prostate
[38] = tested on: SF-539 CNS
[39] = tested on: XF 498 CNS
[40] = tested on: OVCAR-5 ovarian
[41] = tested on: DMS 273 small cell lung
[42] = tested on: SN12C renal
[43] = tested on: DU-145 prostate
[44] = tested on: HCC-2998 colon
[45] = tested on: SF-268 CNS
[46] = tested on: NCI-H23 lung
[47] = tested on: SK-OV-3 ovarian
[48] = tested on: COLO 205 colon
[49] = tested on: RXF-631 renal
[50] = tested on: A498 renal
[51] = tested on: MDA-MB-435
[52] = tested on: A549 NSCLC
[53] = tested on: NCI-H460 lung
[54] = tested on: RPMI-8226 leukemia
[55] = tested on: EKVX NSCLC
[56] = tested on: OVCAR-3 ovarian
[57] = tested on: KM20L2 colon
[58] = tested on: UACC-257 melanoma
[59] = tested on: MALME-3M melanoma
[60] = tested on: HOP-62 NSCLC
[61] = tested on: CCRF-CEM leukemia
[62] = tested on: T-47D breast
[63] = tested on: 786-0 renal
[64] = tested on: ACHN renal
[65] = tested on: M19-MEL melanoma
[66] = tested on: HL-60(TB) leukemia
[67] = tested on: DMS 114 small cell lung

O=[N+]([O-])c1cccc2nc3ccccc3c(NCCN(CCO)CCO)c12
TGI [1]: 10.2 nM | TGI [2]: 2.9 nM | TGI [3]: 3.89 nM | TGI [4]: 11.4 nM | TGI [5]: 28.6 nM | TGI [6]: 108 nM and 346 nM | TGI [7]: 8.75 nM | TGI [8]: 23.5 nM and 111 nM | GI50 [9]: 4.13 nM | TGI [9]: 90.3 nM | TGI [10]: 5.74 nM and 13 nM | TGI [11]: 17.1 nM | TGI [12]: 23.1 nM and 16.6 nM | TGI [13]: 26.5 nM | TGI [14]: 20.2 nM | TGI [15]: 4.1 nM and 19.3 nM | TGI [16]: 30.8 nM | TGI [17]: 23.2 nM and 62.2 nM | GI50 [18]: 257 nM | TGI [19]: 14.7 nM and 81.2 nM | TGI [20]: 9.7 nM | GI50 [21]: 10.3 nM | TGI [21]: 27 nM and 23 nM | TGI [22]: 108 nM and 24.3 nM | TGI [23]: 194 nM and 52.3 nM | TGI [24]: 20.6 nM | TGI [25]: 8.21 nM | TGI [26]: 66.8 nM and 169 nM | TGI [27]: 65.8 nM and 580 nM | TGI [28]: 32.2 nM | GI50 [29]: 11.8 nM | TGI [29]: 31.9 nM and 33.1 nM | TGI [30]: 31.1 nM | GI50 [31]: 4.76 nM | TGI [31]: 28.3 nM | TGI [32]: 4.47 nM | TGI [33]: 26.1 nM | TGI [34]: 54.9 nM and 17 nM | TGI [35]: 110 nM | TGI [36]: 138 nM | TGI [37]: 10.9 nM | GI50 [38]: 13.7 nM | TGI [38]: 26.6 nM and 59.4 nM | TGI [39]: 24 nM | TGI [40]: 23.4 nM | TGI [41]: 42.2 nM and 24.6 nM | TGI [42]: 28.7 nM and 85.9 nM | TGI [43]: 10.8 nM | TGI [44]: 6.74 nM | TGI [45]: 29.6 nM and 113 nM | TGI [46]: 5.83 nM | TGI [47]: 177 nM | TGI [48]: 14.6 nM | TGI [49]: 108 nM and 40.5 nM | TGI [50]: 11.6 nM | TGI [51]: 2.83 nM | TGI [52]: 33.4 nM | TGI [53]: 8.91 nM | TGI [54]: 97.1 nM | GI50 [55]: 12.8 nM | TGI [55]: 41.1 nM and 52.4 nM | TGI [56]: 14.4 nM | TGI [57]: 69 nM and 29 nM | GI50 [58]: 49.8 nM | TGI [58]: 224 nM and 23.8 nM | TGI [59]: 6.49 nM | TGI [60]: 9.91 nM | GI50 [61]: 15.6 nM | TGI [61]: 109 nM | TGI [62]: 114 nM | TGI [63]: 29.6 nM | TGI [64]: 20.5 nM and 34.5 nM

C=CCCCCC1CCC2CCC(CCCC)N12 (centres undefined)
outcome [1]: inactive | outcome [3]: inactive | outcome [4]: inactive | outcome [5]: inactive | outcome [6]: inactive | outcome [8]: inactive | outcome [9]: inactive | outcome [10]: inactive | outcome [11]: inactive | outcome [12]: inactive | outcome [65]: inactive | outcome [13]: inactive | outcome [15]: inactive | outcome [18]: inactive | outcome [19]: inactive | outcome [66]: inactive | outcome [21]: inactive | outcome [22]: inactive | outcome [23]: inactive | outcome [24]: inactive | outcome [25]: inactive | outcome [27]: inactive | outcome [29]: inactive | outcome [30]: inactive | outcome [67]: inactive | outcome [31]: inactive | outcome [32]: inactive | outcome [33]: inactive | outcome [34]: inactive | outcome [36]: inactive | outcome [38]: inactive | outcome [39]: inactive | outcome [40]: inactive | outcome [41]: inactive | outcome [42]: inactive | outcome [44]: inactive | outcome [45]: inactive | outcome [46]: inactive | outcome [47]: inactive | outcome [48]: inactive | outcome [49]: inactive | outcome [52]: inactive | outcome [53]: inactive | outcome [54]: inactive | outcome [56]: inactive | outcome [57]: inactive | outcome [58]: inactive | outcome [59]: inactive | outcome [60]: inactive | outcome [61]: inactive | outcome [63]: inactive | outcome [64]: inactive
